Values belong to the compound of their own block, whether it stands above or below them.
System: 598228-144-R-J1-PDC complex spheroid viability
Experiment: Anticancer human tumor 598228-144-R-J1-PDC patient-derived serous endometrial adenocarcinoma cell line growth inhibition [GQUAD]
Settings: for IC50: curve of first compound; for viability, T/C: stronger effect = lower value
Method in brief: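 Viability of tumor cells grown as complex spheroids with endothelial and stromal cells, exposed to drug combinations. Top concentration at or near clinical Cmax (else 10 microM), diluted in half-log increments.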

[1] = second compound 0.0316 µM, first compound 0.0316 µM
[2] = second compound 0.0316 µM, first compound 0.1 µM
[3] = second compound 0.0316 µM, first compound 0.316 µM
[4] = second compound 0.0316 µM, first compound 1 µM
[5] = second compound 0.0316 µM, first compound 3.16 µM
[6] = second compound 0.0316 µM, first compound 10 µM
[7] = second compound 0.1 µM, first compound 0.0316 µM
[8] = second compound 0.1 µM, first compound 0.1 µM
[9] = second compound 0.1 µM, first compound 0.316 µM
[10] = second compound 0.1 µM, first compound 1 µM
[11] = second compound 0.1 µM, first compound 3.16 µM
[12] = second compound 0.1 µM, first compound 10 µM
[13] = second compound 0.316 µM, first compound 0.0316 µM
[14] = second compound 0.316 µM, first compound 0.1 µM
[15] = second compound 0.316 µM, first compound 0.316 µM
[16] = second compound 0.316 µM, first compound 1 µM
[17] = second compound 0.316 µM, first compound 3.16 µM
[18] = second compound 0.316 µM, first compound 10 µM
[19] = second compound 1 µM, first compound 0.0316 µM
[20] = second compound 1 µM, first compound 0.1 µM
[21] = second compound 1 µM, first compound 0.316 µM
[22] = second compound 1 µM, first compound 1 µM
[23] = second compound 1 µM, first compound 3.16 µM
[24] = second compound 1 µM, first compound 10 µM
[25] = second compound 3.16 µM, first compound 0.0316 µM
[26] = second compound 3.16 µM, first compound 0.1 µM
[27] = second compound 3.16 µM, first compound 0.316 µM
[28] = second compound 3.16 µM, first compound 1 µM
[29] = second compound 3.16 µM, first compound 3.16 µM
[30] = second compound 3.16 µM, first compound 10 µM
[31] = second compound 10 µM, first compound 0.0316 µM
[32] = second compound 10 µM, first compound 0.1 µM
[33] = second compound 10 µM, first compound 0.316 µM
[34] = second compound 10 µM, first compound 1 µM
[35] = second compound 10 µM, first compound 3.16 µM
[36] = second compound 10 µM, first compound 10 µM
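Also: spheroids exposed to the agents for one week before reading.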
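For viability, T/C in this document: percent of vehicle DMSO control viability so 100% = untreated growth.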

Compound: O=c1[nH]cc(F)c(=O)[nH]1 + CN(C)c1ccc(Nc2c3ccc(NC(=O)CCN4CCCC4)cc3nc3cc(NC(=O)CCN4CCCC4)ccc23)cc1
- IC50 (second compound 0.0316 µM): > 10 µM
- IC50 (second compound 0.1 µM): > 10 µM
- IC50 (second compound 0.316 µM): > 10 µM
- IC50 (second compound 1 µM): > 10 µM
- IC50 (second compound 3.16 µM): > 10 µM
- IC50 (second compound 10 µM): > 10 µM
- viability, T/C [1]: 121%
- viability, T/C [2]: 95%
- viability, T/C [3]: 102%
- viability, T/C [4]: 91.3%
- viability, T/C [5]: 89.8%
- viability, T/C [6]: 90.8%
- viability, T/C [7]: 104%
- viability, T/C [8]: 106%
- viability, T/C [9]: 132%
- viability, T/C [10]: 100%
- viability, T/C [11]: 96.8%
- viability, T/C [12]: 65.5%
- viability, T/C [13]: 103%
- viability, T/C [14]: 105%
- viability, T/C [15]: 104%
- viability, T/C [16]: 108%
- viability, T/C [17]: 104%
- viability, T/C [18]: 97%
- viability, T/C [19]: 107%
- viability, T/C [20]: 112%
- viability, T/C [21]: 106%
- viability, T/C [22]: 99.1%
- viability, T/C [23]: 111%
- viability, T/C [24]: 81.5%
- viability, T/C [25]: 81%
- viability, T/C [26]: 113%
- viability, T/C [27]: 127%
- viability, T/C [28]: 98.5%
- viability, T/C [29]: 125%
- viability, T/C [30]: 61.8%
- viability, T/C [31]: 82.7%
- viability, T/C [32]: 71.3%
- viability, T/C [33]: 95.4%
- viability, T/C [34]: 88.7%
- viability, T/C [35]: 88.5%
- viability, T/C [36]: 64%

- IC50 (second compound 0.0316 µM): > 10 µM
- IC50 (second compound 0.1 µM): > 10 µM
- IC50 (second compound 0.316 µM): > 10 µM
- IC50 (second compound 1 µM): > 10 µM
- IC50 (second compound 3.16 µM): > 10 µM
- IC50 (second compound 10 µM): < 0.0316 µM
Compound: O=c1[nH]cc(F)c(=O)[nH]1 + Cc1cnc(CNC(=O)c2c(=O)c3ccc(N4CCCN(C)CC4)nc3n3c2sc2ccccc23)cn1
- viability, T/C [1]: 101%
- viability, T/C [2]: 98.9%
- viability, T/C [3]: 85.3%
- viability, T/C [4]: 85.7%
- viability, T/C [5]: 89%
- viability, T/C [6]: 76%
- viability, T/C [7]: 69.2%
- viability, T/C [8]: 80.3%
- viability, T/C [9]: 69.9%
- viability, T/C [10]: 65.1%
- viability, T/C [11]: 97.9%
- viability, T/C [12]: 64.1%
- viability, T/C [13]: 69.7%
- viability, T/C [14]: 77.8%
- viability, T/C [15]: 72.4%
- viability, T/C [16]: 66.3%
- viability, T/C [17]: 65.1%
- viability, T/C [18]: 55.5%
- viability, T/C [19]: 61.2%
- viability, T/C [20]: 54.3%
- viability, T/C [21]: 63.5%
- viability, T/C [22]: 68.4%
- viability, T/C [23]: 73.8%
- viability, T/C [24]: 60.3%
- viability, T/C [25]: 56.1%
- viability, T/C [26]: 59.2%
- viability, T/C [27]: 56%
- viability, T/C [28]: 46.1%
- viability, T/C [29]: 67.9%
- viability, T/C [30]: 52.2%
- viability, T/C [31]: 44.5%
- viability, T/C [32]: 49.6%
- viability, T/C [33]: 48.3%
- viability, T/C [34]: 53.1%
- viability, T/C [35]: 59.8%
- viability, T/C [36]: 51.9%

Compound: CCc1c2c(nc3ccc(O)cc13)-c1cc3c(c(=O)n1C2)COC(=O)[C@]3(O)CC + CN(C)c1ccc(Nc2c3ccc(NC(=O)CCN4CCCC4)cc3nc3cc(NC(=O)CCN4CCCC4)ccc23)cc1
- IC50 (second compound 0.0316 µM): 0.00757 µM
- IC50 (second compound 0.1 µM): 0.0135 µM
- IC50 (second compound 0.316 µM): 0.0121 µM
- IC50 (second compound 1 µM): < 0.000999 µM
- IC50 (second compound 3.16 µM): 0.015 µM
- IC50 (second compound 10 µM): < 0.000999 µM
- viability, T/C (second compound 0.0316 µM, first compound 0.000999 µM): 68.8%
- viability, T/C (second compound 0.0316 µM, first compound 0.00316 µM): 56.2%
- viability, T/C (second compound 0.0316 µM, first compound 0.00999 µM): 45.6%
- viability, T/C [1]: 39.7%
- viability, T/C (second compound 0.0316 µM, first compound 0.0999 µM): 30.5%
- viability, T/C [3]: 18.8%
- viability, T/C (second compound 0.1 µM, first compound 0.000999 µM): 65.3%
- viability, T/C (second compound 0.1 µM, first compound 0.00316 µM): 53.1%
- viability, T/C (second compound 0.1 µM, first compound 0.00999 µM): 56.1%
- viability, T/C [7]: 41.2%
- viability, T/C (second compound 0.1 µM, first compound 0.0999 µM): 25.3%
- viability, T/C [9]: 15.5%
- viability, T/C (second compound 0.316 µM, first compound 0.000999 µM): 70.2%
- viability, T/C (second compound 0.316 µM, first compound 0.00316 µM): 50.4%
- viability, T/C (second compound 0.316 µM, first compound 0.00999 µM): 45.7%
- viability, T/C [13]: 55.3%
- viability, T/C (second compound 0.316 µM, first compound 0.0999 µM): 27.7%
- viability, T/C [15]: 16.9%
- viability, T/C (second compound 1 µM, first compound 0.000999 µM): 50.5%
- viability, T/C (second compound 1 µM, first compound 0.00316 µM): 42%
- viability, T/C (second compound 1 µM, first compound 0.00999 µM): 49.9%
- viability, T/C [19]: 49%
- viability, T/C (second compound 1 µM, first compound 0.0999 µM): 27.7%
- viability, T/C [21]: 15.9%
- viability, T/C (second compound 3.16 µM, first compound 0.000999 µM): 58.6%
- viability, T/C (second compound 3.16 µM, first compound 0.00316 µM): 57.2%
- viability, T/C (second compound 3.16 µM, first compound 0.00999 µM): 59.1%
- viability, T/C [25]: 37.4%
- viability, T/C (second compound 3.16 µM, first compound 0.0999 µM): 26%
- viability, T/C [27]: 16.8%
- viability, T/C (second compound 10 µM, first compound 0.000999 µM): 60.6%
- viability, T/C (second compound 10 µM, first compound 0.00316 µM): 33.6%
- viability, T/C (second compound 10 µM, first compound 0.00999 µM): 37.7%
- viability, T/C [31]: 45.6%
- viability, T/C (second compound 10 µM, first compound 0.0999 µM): 23.5%
- viability, T/C [33]: 10.5%
